{
  "source": "paper PMC12647892",
  "about": "“State-selective small molecule degraders that preferentially remove aggregates and oligomers” (Nature Communications, 2025)",
  "biological_target": "T1, TRIM21 PRYSPRY (Homo sapiens, UniProt P19474)",
  "T1 construct": "PRYSPRY domain (TRIM21his-PS)",
  "T1 sequence (P19474 287-465 limits assumed)": "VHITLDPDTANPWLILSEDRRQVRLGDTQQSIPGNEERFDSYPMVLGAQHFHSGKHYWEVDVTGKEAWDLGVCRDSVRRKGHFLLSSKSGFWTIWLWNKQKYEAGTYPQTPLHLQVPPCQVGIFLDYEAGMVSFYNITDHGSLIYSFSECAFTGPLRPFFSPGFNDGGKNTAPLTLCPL",
  "assay": "crystal structure; fluorescence polarisation, tryptophan quenching, nanoDSF",
  "assay_type": "binding",
  "data": [
    {"compound": "CNC(=O)[C@H](Cc1ccncc1)NC(=O)[C@@H]1C[C@@H](C2CCCCC2)CN1C(=O)C[C@H](N)c1ccccc1OC", "note": "[MRC37]", "values": [
      {"measurement": "Kd", "value": 400, "unit": "nM"}
    ]}
  ]
}
